Results on 3 molecules are retold here after patent US20030082135A1, “Pathway of RANTES-mediated chemokine synthesis in astrocytes and methods of use therefor” (priority 2001, published 2003).

In data set [1] the test system is PKA. As to the kind of experiment: PKA activity assay on lysates of treated astrocytes. The data set is classed as cell-based, mouse. The protocol: PKA activity assay. PKA activity was determined using a commercially available kit (Calbiochem, San Diego, Calif.) according to manufacturer's recommendations. Primary mouse astrocytes were grown in 6-well plates and then stimulated as described and lysed in 100 μl buffer (same buffer used for Western blotting) for 30 min. Five μl of the lysates were incubated with 20 μl PKA reaction mixture at 30° C. for 30 min. The reaction was terminated by adding 10 μl stop solution and ^32P radioactivity was counted.

Data set [2] has as its system MEK, ERK1/2, p90RSK, p38, SAPK/JNK phosphorylation in astrocytes. As to the kind of experiment: Western blotting of phosphorylated MAP kinase pathway proteins in astrocyte lysates. It counts as cell-based, mouse. The protocol: SDS-PAGE and Western blotting. Astrocytes were treated for the indicated time with media or 100 ng/ml RANTES, eotaxin, or other materials as indicated. Cells (3×10^5 in Examples 1-3, or 2×10^4 in later Examples) were resuspended in 100 μl buffer (50 mM HEPES, pH 7.5, 150 mM NaCl, 2 mM EDTA, 2 mM EGTA, 1% Triton X-100, 50 mM Sodium fluoride, 5 mM Sodium pyrophosphate, 50 mM Sodium β-glycerophosphate, 1 mM Sodium Ortho-vanadate, 1 mM DTT, 1 mM PMSF, 10 μg/ml Leupeptin, and 10 μg/ml Aprotinin). Protein concentration of the whole cell extract was determined by BCA protein assay kit (Pierce, Rockford, Ill.). Samples (10 μg) were loaded and separated on a 10% SDS-polyacrylamide gel. After transfer to Hybond ECL nitrocellulose membrane (Amersham Pharmacia Biotech Inc, Piscataway, N.J.) or Zeta-probe blotting membranes (Bio-Rad, Richmond Calif.) blots were blocked overnight with 5% BSA at 4° C., and probed with the antibody indicated. Antibody against unphosphorylated or phosphorylated erk (Cell Signaling, Beverly, Mass.) was used at 1 μg/ml. Appropriate anti-immunoglobulin reagents were used to develop the blots by enhanced chemiluminescence (Amersham Pharmacia Biotech Inc, Piscataway, N.J.).
Little is known about the signaling mechanisms involved in astrocyte respones to chemokines. To examine components of the RANTES signal transduction pathway, phosphorylation of the MAP kinase kinase (MEK) and mitogen activated protein (MAP) kinases was examined. To minimize basal kinase activity, astrocytes were starved of serum for at least 3 h before treatment with chemokine. Whole cell lysates were separated by SDS-PAGE and examined by Western blot. Antibodies that specifically react with phosphorylated MEK or phosphorylated extracellular signal-related kinase (ERK) were used to detect the active kinases.
A general note: Immunoblotting shows a protein as a band on a membrane.

The test system of data set [3] is astrocytes.
Data set [4] relates to primary neonatal mouse astrocyte cultures. As to the kind of experiment: RNase protection assay (RPA) for chemokine/cytokine transcripts in astrocyte cultures. It counts as cell-based. As for the experimental part: Astrocyte isolation and culture. […] RNA isolation and RNase protection assay (RPA). […] RNase protection assays (RPA) for chemokine message were conducted with multi-probe templates according to the manufacture's protocol (RiboQuant assay kit, BD-PharMingen, San Diego, Calif.). Gels were scanned and radioactive bands quantitated using a phosphoimager (Molecular Dynamics, Sunnyvale, Calif.). Levels of uniformly expressed housekeeping genes large ribosomal subunit protein 32-3A (L32) or glyceraldehyde-3-phosphate dehydrogenase (GAPDH), were used for normalization. The value of each chemokine receptor band divided by the value of the indicated housekeeping gene band in the same sample yielded the relative intensity. Normalized receptor expression represents the ratio of the relative intensity following treatment with chemokine versus the relative intensity of medium alone. Treatment with pharmacological inhibitors. Astrocytes were washed and resuspended in serum-and insulin-free complete medium and starved overnight. Cells were treated at 37° C. for 1 h with 100 ng/ml Pertussis toxin (PTx) before addition of RANTES or IL-1. […] The cells were harvested after a 3 h incubation with RANTES; RNA was prepared and assayed by RPA.

Data set [5] has as its system murine KC promoter. Description: KC promoter luciferase reporter in transfected astrocytes. It counts as cell-based, mouse. The conditions noted are these: U0126 indicated amounts or 5 μM SB203580 plus 100 ng/ml RANTES, 24 h. An excerpt: Plasmids, transient transfection, and luciferase activity assay. The KC reporter plasmid was constructed by using a luciferase reporter gene pGL-3 basic vector (Promega, Madison, Wis.) driven by mouse KC promoter (−2878/+43). Wild-type p90RSK expression (WT pKH3) and dominant negative p90RSK expression (ΔΔ RSK pKH3) plasmids were obtained from Dr. John Blenis, Harvard Medical School. Astrocytes were transiently transfected with Lipofectamine 2000 reagent (Life Technologies, Gaithersburg, Md.) according to the manufacturer's protocol. After 24 h, the cells were stimulated with RANTES in absence or presence of the indicated inhibitor, and luciferase activity was determined after an additional 24 h, by the procedure according to the manufacturer (Promega, Madison, Wis.). Relative luciferase activity was normalized for cell lysate protein concentration as determined by BCA protein assay kit (Pierce, Rockford, Ill.). The Relative Fold Induction is the relative intensity of the experimental sample divided by the relative intensity of the medium control.
To establish whether RANTES up-regulation of chemokine production is mediated by activation of promoter elements, primary astrocyte cultures were transiently transfected with a murine KC promoter-luciferase construct, and reporter activity was monitored after RANTES treatment.
For orientation: Reporter assays use an easily measured gene product as a stand-in for the process of interest.

Data set [6] deals with CXCR4, CX3CR1, CCR1, CCR5 transcripts in astrocytes. As to the kind of experiment: RPA for chemokine receptor transcripts in astrocytes. It counts as cell-based, mouse. The conditions noted are these: average, pooled results of 3-4 experiments. As for the experimental part:
RNA isolation and RNase protection assay (RPA). RNA was prepared as in Luo, Y., et al. 1999. J Immunol 163:3985. RNase protection assays (RPA) for chemokine message were conducted with multi-probe templates according to the manufacture's protocol (RiboQuant assay kit, BD-PharMingen, San Diego, Calif.). Gels were scanned and radioactive bands quantitated using a phosphoimager (Molecular Dynamics, Sunnyvale, Calif.). Levels of uniformly expressed housekeeping genes large ribosomal subunit protein 32-3A (L32) or glyceraldehyde-3-phosphate dehydrogenase (GAPDH), were used for normalization. The value of each chemokine receptor band divided by the value of the indicated housekeeping gene band in the same sample yielded the relative intensity. Normalized receptor expression represents the ratio of the relative intensity following treatment with chemokine versus the relative intensity of medium alone.
Treatment with the RANTES-related chemokines RANTES or eotaxin, or with TNF-α also found to down-regulate expression of CX3CR1 transcripts. In addition, CXCR4 mRNA levels were decreased, while the levels of CCR1 transcripts were elevated. In contrast, little or no regulation of CCR5 was noted. The pooled results of 3-4 experiments indicate eotaxin caused an average 60% decrease in CXCR4 (P less than 0.01) and a 70% decrease in CX3CR1 mRNA (P less than 0.02) (FIG. 8.B). The effects of RANTES stimulation were similar with an average 70 and 90% reduction in CXCR4 and CX3CR1 transcripts, respectively (P less than 0.01).

Data set [7] concerns astrocytes. Description: ELISA of KC, TNF-α and MCP-1 protein in astrocyte culture supernatants. It counts as cell-based, mouse. Conditions: 48 h, 1.5 to 100 ng/ml tested. On the technique in general: An ELISA detects its analyte on a solid surface through an enzyme-linked reagent.
Data set [8] deals with cultured mouse astrocytes. As to the kind of experiment: RT-PCR for KC message in astrocytes. It counts as cell-based.

Entries after “also recorded” stand apart in the source; their conditions may differ.

On to `O=C1Nc2ccc(I)cc2/C1=C/c1cc(Br)c(O)c(Br)c1` [Raf-1 inhibitor, reference compound], for which the “effect on PKA activity” value in data set [1] is “neither U0126 nor Raf-1 inhibitor decreased PKA activity”. Also, the “effect on MEK and erk1/2 phosphorylation induced by RANTES” value in data set [2] is listed as “blocked”. The “effect on astrocyte viability or expression of the housekeeping genes L32 and GAPDH” value in data set [3] was “failed to affect”. In addition, the “effect on RANTES-induced chemokine/cytokine gene expression” value in data set [4] (increasing doses, 1 h pretreatment, 100 ng/ml RANTES 3 h) is “blocked gene expression in a dose dependent fashion”.
For the molecule `N#CC(=C(/N)Sc1ccccc1N)/C(C#N)=C(\N)Sc1ccccc1N` [U0126, reference compound], the “effect on PKA activity” value in data set [1] is reported as “neither U0126 nor Raf-1 inhibitor decreased PKA activity”. In addition, the “effect on erk1/2 and RSK phosphorylation induced by H-89” value in data set [2] (10-50 μM U0126 or 5 μM SB203580, 10 μM H-89 for 20 min) is reported as “blocked”. In addition, the “effect on RANTES-induced RSK phosphorylation” value in data set [2] (varying concentrations before 100 ng/ml RANTES, 20 min) is on record as “block RSK phosphorylation in a dose dependent fashion”. Besides, in data set [4], the “effect on H-89 induced chemokine/cytokine transcription” value was “inhibited; also recorded: blocked”; the “effect on RANTES-induced chemokine message” value was “blocked induction of chemokine transcripts”; the “effect on background level of RANTES transcript” value is listed as “failed to diminish”; the “inhibition of RANTES-induced TNF-α and chemokine transcription” value is reported as “partially inhibited; also recorded: completely inhibited”. Besides, the “effect on RANTES-induced KC reporter activity” value in data set [5] is recorded as “inhibit reporter activity”.

B1: eotaxin: recombinant mouse chemokine, RANTES-related, purchased from R&D System (protein, UniProt P48298 24-97, looked up)
Eotaxin: HPGSIPTSCCFIMTSKKIPNTLLKSYKRITNNRCTLKAIVFKTRLGKEICADPKKKWVQDATKHLDQKLQTPKP
Take B1: in data set [6], the “decrease in CX3CR1 mRNA” value is recorded as 70% and the “decrease in CXCR4 mRNA” value was 60%. In addition, the “concentration inducing KC protein” value in data set [7] was at least 25 ng/mL. In data set [4] (100 ng/ml), the “production of chemokine transcripts by astrocytes from mice deficient for CCR1, CCR2, CCR3, or CCR5” value is listed as “specifically responded”. The “expression of TNF-α, RANTES, KC, MIP-1α, MIP-2, and MCP-1 transcripts” value in data set [4] (BALB/cJ neonatal astrocytes, chemokine for 6 h) is on record as “up-regulated”. Moreover, the “ability to induce chemokine transcripts after boiling” value in data set [4] (boiled for 30 min before incubation with astrocytes) was “completely destroyed”. For the same molecule, the “synthesis of KC message” value in data set [8] is recorded as “induce synthesis of KC message”.
